According to ChEMBL document CHEMBL1201862, “PubChem BioAssay data set” (2004):
Values joined by “and” are separate entries in the source; they are usually repeats but may differ in a detail not shown here. Equal values may be shown once.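 How tested: cells in 96-well plates exposed to compound for 48 hours at five concentrations. GI50 is the concentration that inhibits growth by half.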 Active and inactive are the calls of the source. Cut-off read from the data, not from the text of the source: active = GI50 up to about 1.1 µM and inactive = higher.

Legend:
Test in all cases: growth of human tumour cells (NCI), 48 h
MDA-MB-435 = system: MDA-MB-435
SR = system: SR
TK-10 = system: TK-10
CCRF-CEM = system: CCRF-CEM
A498 = system: A498
ACHN = system: ACHN
CAKI-1 = system: CAKI-1
A549 = system: A549
SF-268 = system: SF-268
DU-145 = system: DU-145
SK-MEL-5 = system: SK-MEL-5
KM12 = system: KM12
HT-29 = system: HT-29
OVCAR-5 = system: OVCAR-5
SF-295 = system: SF-295
EKVX = system: EKVX
OVCAR-3 = system: OVCAR-3
RXF 393 = system: RXF 393
NCI-H522 = system: NCI-H522
MDA-MB-231 = system: MDA-MB-231

Measured: GI50

O=c1[nH]c(N/N=C\C(O)C(O)C(O)CO)nc2ccccc12 (configuration not stated)
inactive: MDA-MB-435 > 100 µM | SR > 100 µM and 56.2 µM | TK-10 > 100 µM | CCRF-CEM > 100 µM | A498 > 100 µM | ACHN > 100 µM | CAKI-1 > 100 µM | A549 > 100 µM | SF-268 > 100 µM | DU-145 > 100 µM | SK-MEL-5 > 100 µM | KM12 > 100 µM | HT-29 > 100 µM | OVCAR-5 > 100 µM | SF-295 > 100 µM | EKVX > 100 µM | OVCAR-3 > 100 µM

O=C(/C=C/c1cccc([N+](=O)[O-])c1)c1cccnc1
inactive: SR 22.7 µM | TK-10 > 100 µM | RXF 393 18.1 µM | CCRF-CEM 24.6 µM | NCI-H522 7.98 µM | A498 > 43.6 µM | ACHN 71.1 µM | CAKI-1 > 46.5 µM | A549 > 60 µM | SF-268 33.3 µM | SK-MEL-5 14.7 µM | KM12 19.9 µM | HT-29 20.2 µM | OVCAR-5 > 100 µM | SF-295 46 µM | EKVX > 100 µM | OVCAR-3 27.5 µM

CN(C)C1(C#N)CCC2(CC1)OCCO2
inactive: SR > 100 µM | TK-10 > 100 µM | RXF 393 > 100 µM | CCRF-CEM > 100 µM | NCI-H522 > 100 µM | A498 > 100 µM | ACHN > 100 µM | CAKI-1 > 100 µM | A549 > 100 µM | SF-268 > 100 µM | SK-MEL-5 > 100 µM | KM12 > 100 µM | HT-29 > 100 µM | OVCAR-5 > 100 µM | SF-295 > 100 µM | EKVX > 100 µM | OVCAR-3 > 100 µM

CCc1cccc(C(C)CC)c1NC(=O)CC1C(=O)Nc2ccccc2[S+]1[O-] (configuration not stated)
inactive: SR 30 µM | TK-10 > 100 µM | RXF 393 13.9 µM | CCRF-CEM 24.8 µM | A498 37.2 µM | ACHN 44.2 µM | CAKI-1 26.4 µM | A549 31.8 µM | SF-268 40.9 µM | SK-MEL-5 27.2 µM | HT-29 23.1 µM | OVCAR-5 33.1 µM | SF-295 > 100 µM | EKVX > 100 µM | OVCAR-3 50.7 µM

Cc1ccc(-c2c(C#N)c(-c3ccc(N(C)C)cc3)c(C#N)c(=O)n2NS(=O)(=O)c2ccccc2)cc1
inactive: MDA-MB-435 43.7 µM | TK-10 92.3 µM | RXF 393 22.7 µM | CCRF-CEM 29.5 µM | NCI-H522 42.3 µM | A498 51.4 µM | MDA-MB-231 > 100 µM | ACHN 42.7 µM | CAKI-1 31.7 µM | A549 36.5 µM | SF-268 79.3 µM | SK-MEL-5 17.3 µM | KM12 31.3 µM | HT-29 38.5 µM | OVCAR-5 > 100 µM | SF-295 23.1 µM | EKVX 96.6 µM

O=C1CC(C(O)C(O)C(O)CO)CC(=O)N1 (configuration not stated)
inactive: MDA-MB-435 > 100 µM | SR > 100 µM | TK-10 > 100 µM | RXF 393 > 100 µM | CCRF-CEM > 100 µM | NCI-H522 > 100 µM | A498 > 100 µM | MDA-MB-231 > 100 µM | ACHN > 100 µM | CAKI-1 > 100 µM | A549 > 100 µM | SF-268 > 100 µM | SK-MEL-5 > 100 µM | KM12 > 100 µM | HT-29 > 100 µM | OVCAR-5 > 100 µM | SF-295 > 100 µM | EKVX > 100 µM | OVCAR-3 > 100 µM

Cc1cccc2c1C/C(=C\c1cccc(C)c1C(=O)O)C2=O
inactive: MDA-MB-435 > 100 µM | SR 54.7 µM | TK-10 > 100 µM | RXF 393 > 100 µM | CCRF-CEM 84.9 µM | NCI-H522 > 100 µM | A498 > 100 µM | ACHN > 100 µM | CAKI-1 > 100 µM | A549 > 100 µM | SF-268 > 100 µM | DU-145 > 100 µM | SK-MEL-5 71.6 µM | KM12 > 100 µM | HT-29 70.1 µM | OVCAR-5 > 100 µM | SF-295 > 100 µM | EKVX > 100 µM | OVCAR-3 > 100 µM

COc1ccc2c(c1)[n+]([O-])c(-c1ccc([N+](=O)[O-])cc1)c(N)[n+]2[O-]
inactive: SR 18.7 µM | RXF 393 > 100 µM | CCRF-CEM 56.5 µM | NCI-H522 12.7 µM | A498 > 100 µM | ACHN > 100 µM | CAKI-1 > 100 µM | A549 70.8 µM | SF-268 78.2 µM | SK-MEL-5 > 100 µM | KM12 > 100 µM | HT-29 65.5 µM | OVCAR-5 > 100 µM | SF-295 > 100 µM | EKVX > 100 µM | OVCAR-3 > 100 µM
